Where “and” joins values, the source holds several entries; their conditions need not be identical. Equal values may be shown once. Marks after values point to notes of the source that are not given here.
Legend:
[1] = tested on: acidic vesicular organelles (AVO) in MCF-7 cells; assay: Mean red/green fluorescence ratio in acridine orange stained cells by flow cytometry; assay type: cell-based, human
Description: bFGF was added to cultures of MCF-7 cells at 10 ng/ml for 48 hours. TNF was added at 2.3 nM for 48 hours. PMA was added for 1 hour at a concentration of 30 nM, followed by rinsing of the cells and incubation for an additional 48 hours.
Cell staining was performed according to standard techniques (Arvan et al., 1984, J. Bio. Chem. 259:13567-13572; Mains and May, 1988, J. Biol. Chem. 263:7887-7894; Traganos and Darzynkiewicz, Methods in Cell Biology 41:185-194, Academic Press). Acridine orange (Polysciences, Warrington, Pa.) was added to a final concentration of 1 μg/ml for 15 minutes. Bafilomycin A1 (Sigma Chemical Co., St. Louis, Mo.) was dissolved in DMSO and added to the cells 30 minutes prior to the addition of acridine orange. LysoSensor Blue DND-167 (Molecular Probes, Eugene, Oreg.) at a final concentration of 10 μM was added for 8 minutes. Pictures were obtained with a fluorescence microscope (Olympus BH-2 RFCA), equipped with a mercury-100 W lamp, 490 nm band pass blue excitation filters, 500 nm dichroic mirror and a 515 nm long pass barrier filter. Images of control and irradiated cells were recorded on Kodak Elite II 100 ASA film for color slides by 4 seconds exposure.
In acridine orange stained cells the cytoplasm and nucleolus fluoresce bright green and dim red, while acidic compartments fluoresce bright red (Mains and May, 1988, J. Biol. Chem. 263:7887-7894; Traganos and Darzynkiewicz, Methods in Cell Biology Vol. 41, pp. 185-194, Academic Press). The intensity of the red fluorescence is proportional to the degree of acidity and/or the volume of the cellular acidic compartment. Therefore, by comparing the mean red/green fluorescence ratio within different cell populations, a change in the degree of acidity and/or the fractional volume of the cellular acidic compartment could be measured. Cells were stained with acridine orange for […], removed from the plate with trypsin-EDTA and collected in phenol red-free growth medium. Green (510-530 nm) and red (>650 nm) Fluoresence emission from 10,000 cells illuminated with blue (488 nm) excitation light was measured with a FACSCalibur from Becton Dickinson (San Jose, Calif.) using CellQuest software. The red to green fluorescence ratio for individual cells was calculated using FlowJo software (TREE STAR, Inc., San Carlos, Calif.). To control for possible effect of trypsinization on the measured red to green fluorescence ratio, the ratios were compared by flow cytometry with those obtained with a Laser Scanning Microscope (LSM510 from Zeiss). Stained cells, grown on cover glass, were illuminated with a 488 nm argon laser beam. The red (>650 nm) to green (505-545 nm) fluorescence ratio of an entire image was obtained using software LSM 510 version 2.01 SP2. These measurements yielded similar results to those obtained with flow cytometry. All determinations of red to green fluorescence ratio reported in this section were obtained via flow cytometry.

[2] = tested on: MCF-7 (human breast adenocarcinoma); assay: Clonogenic survival (surviving fraction) of MCF-7 cells after radiation or chemotherapeutic agent; assay type: cell-based; conditions: for Surviving Fraction 100 nM Adriamycin / Surviving Fraction: Table 16
Description: (§1) MCF-7 (human breast adenocarcinoma), LoVo (human colon adenocarcinoma) and LNCaP (human prostate carcinoma) were obtained from the American Type Culture Collection. Cells were maintained as described in Paglin et al., 1997, Biochem. Biophs. Res. Comm. 237:678-684). Irradiation was carried out 48 hours post-plating (T0) at room temperature using a Cs-137 irradiator (Sheperd Mark-I, model 68, SN643) at a dose rate of 2.43-2.32 Gy/min. Bovine aortic endothelial cells were grown and treated with H2O2 as described in Haimovitz-Friedman et al., 1994, J. Exp. Med. 180:525-535 and Verhij et al., 1996, Nature 380:75-79. Phorbol 12-myristate 13-acetate (PMA; Alexis Biochemicals Corp., San Diego, Calif.) was dissolved in dimethyl sulfoxide (DMSO) and added to cells for the duration of one hour. The final DMSO concentration was 0.03%. The cells were then rinsed with warm growth medium before being returned to the incubator for an additional 48 hours.
(§2) Cells were plated in growth medium at a density of 30-90 cells per square centimeter and irradiated 22 hours later. Each experimental condition was done in quintet or triplicate. Cells were irradiated at room temperature in Cs-137 Irradiator (Sheperd Mark-I, Model 68, SN 643) at a rate of 2.43-2.32 Gy/min. […] For determination of their red to green ratio, colonies were processed as described above. For determination of surviving fractions cells were stained with crystal violet and colonies containing 50 cells or more were counted with a dissecting microscope. The surviving fraction was defined as the ratio between the plating efficiencies of irradiated and non-irradiated cells and was calculated at each dose level according to Hall and Phill (1994, […] for the Radiologist, 4th Edition, J. Lippincott Co., Philadelphia).

[3] = tested on: LoVo (human colon adenocarcinoma); assay: Clonogenic survival (surviving fraction) of LoVo cells after radiation or chemotherapeutic agent; assay type: cell-based
Description: as §1, §2

[4] = tested on: MCF-7 (human breast adenocarcinoma); assay: Clonogenic survival (surviving fraction) of MCF-7 cells after radiation or chemotherapeutic agent; assay type: cell-based
[5] = tested on: AVO in MCF-7 cells; assay: Vital staining with acridine orange, fluorescence microscopy; assay type: cell-based, human; conditions: pre-incubation with 300 μM chloroquine
Description: Acridine orange (Polysciences, Warrington, Pa.) was added to a final concentration of 1 μg/ml for 15 minutes. […] Pictures were obtained with a fluorescence microscope (Olympus BH-2 RFCA), equipped with a mercury-100 W lamp, 490 nm band pass blue excitation filters, 500 nm dichroic mirror and a 515 nm long pass barrier filter. Images of control and irradiated cells were recorded on Kodak Elite II 100 ASA film for color slides by 4 seconds exposure.

[6] = tested on: AVO-EM in irradiated MCF-7 cells; assay: Electron microscopy of AVO-EM; assay type: cell-based, human; conditions: 3-methyladenine 5 mM; 10 Gy; without it 94%
Description: Cell processing for electron microscopy and staining with N-(3-(2,4-dinitrophenyl)-N-(3-aminopropyl))methylamine dihydrochloride (DAMP; Molecular Probes, Eugene, Oreg.) was performed as set forth in Anderson et al., 1984, Proc. Natl. Acad. Sci. U.S.A. 81:4838-4842 and Dunn et al., 1990, J. Cell Biol. 110:1935-1945. The fraction of the cytoplasmic volume occupied by AVO (fractional volume of AVO) was quantified from electron micrographs according to Dunn and Lenk et al., (Dunn et al., 1990, J. Cell Biol. 110:1935-1945; Lenk et al., 1992, J. Cell Biol. 118:301-308). Digital Images of the micrographs were obtained using an Epson ES-1200S flat bed scanner with Adobe Photoshop version 5. The fractional volume was calculated with Image Pro Plus Version 3 and expressed as a percentage of the total cytoplasmic volume.

## CC/C(=C(\c1ccccc1)c1ccc(OCCN(C)C)cc1)c1ccccc1 [Tamoxifen]
[1]; Tamoxifen 2 × 10^−6 M
  Fold increase of Red:Green: 1.6 fold
[1]; Tamoxifen 2 × 10^−6 M + Estradiol 10^−9 M
  Fold increase of Red:Green: 1.33 fold
[1]; Tamoxifen 10^−6 M
  Fold increase of Red:Green: 1.5 fold
[1]; Tamoxifen 10^−6 M + Estradiol 10^−9 M
  Fold increase of Red:Green: 1.25 fold

## z-VAD-fmk
[1]; z-VAD-fmk 50 μM added 1 hour before irradiation, 10 Gy, 24 hours following irradiation
  mean red to green fluorescence ratio: 2.5 ± 0.04
[1]; z-VAD-fmk 50 μM added 1 hour before, unirradiated, 24 hours
  mean red to green fluorescence ratio: 1.4 ± 0.07

## bFGF: cytokine tested as inducer of acidic organelle formation
[1]; MCF-7, bFGF 10 ng/ml for 48 hours
  Fold Increase in Red: Green: 2.23 ± 0.18 (n = 3) fold

## COc1cccc2c1C(=O)c1c(O)c3c(c(O)c1C2=O)C[C@@](O)(C(=O)CO)C[C@@H]3O[C@H]1C[C@H](N)[C@H](O)[C@H](C)O1 [Adriamycin]
[2]; MCF-7, 100 nM Adriamycin alone (Salicilyhalamide 0 nM)
  Surviving Fraction 100 nM Adriamycin: 0.88 ± 0.08
[3]; Adriamycin 50 nM alone
  Surviving Fraction Without Bafilomycin: 0.84 ± 0.01
[3]; Adriamycin 100 nM alone
  Surviving Fraction Without Bafilomycin: 0.77 ± 0.01
[3]; Adriamycin 150 nM alone
  Surviving Fraction Without Bafilomycin: 0.47 ± 0.02
[3]; Table 17, Adriamycin 100 nM alone, 48 hours
  survival, Adriamycin 100 nM: 0.94 ± 0.1
[4]; Table 15, 100 nM adriamycin alone (Bafilomycin 0 nM)
  survival, column Adriamycin: 0.88 ± 0.08

## CCN(CC)CCCC(C)Nc1ccnc2cc(Cl)ccc12 (stereo not drawn) [chloroquine]
[5]
  acridine orange accumulation in the AVO: inhibited acridine orange accumulation

## CO[C@H]1C[C@@H]2CC[C@@H](C)[C@@](O)(O2)C(=O)C(=O)N2CCCC[C@H]2C(=O)O[C@H]([C@H](C)C[C@@H]2CC[C@@H](O)[C@H](OC)C2)CC(=O)[C@H](C)/C=C(\C)[C@@H](O)[C@@H](OC)C(=O)[C@H](C)C[C@H](C)/C=C/C=C/C=C/1C [Rapamycin, rapamycin]
[1]; Table 21, MCF-7, 20 nM rapamycin
  Fold Increase in Red:Green 48 hrs: 1.96 fold
[1]; Table 21, MCF-7, 50 nM rapamycin
  Fold Increase in Red:Green 48 hrs: 2.31 fold
[1]; Table 22, Rapamycin 10 nM
  Fold Increase in Red:Green 24 hrs: 1.7 fold
  Fold Increase in Red:Green 48 hrs: 1.6 fold
[1]; Table 22, Rapamycin 20 nM
  Fold Increase in Red:Green 24 hrs: 1.7 fold
  Fold Increase in Red:Green 48 hrs: 1.4 fold

## C[C@]12CC[C@@H]3c4ccc(O)cc4CC[C@H]3[C@@H]1CC[C@@H]2O [Estradiol]
[1]; Estradiol 10^−9 M alone
  Fold increase of Red:Green: 1 fold
[1]; estradiol 10^−9 M with tamoxifen, Table 23
  inhibition of the effect of tamoxifen on appearance of acidic vesicular organelles: 50%

## CCCCCCCCCCCCCC(=O)O[C@@H]1[C@@H](C)[C@@]2(O)[C@@H](C=C(CO)C[C@]3(O)C(=O)C(C)=C[C@@H]23)[C@@H]2C(C)(C)[C@]12OC(C)=O [PMA, Phorbol 12-myristate 13-acetate]
[1]; MCF-7, PMA 30 nM for 1 hour, rinsed, additional 48 hours
  Fold Increase in Red: Green: 1.7±0.3 fold and 1.7 ± 0.3 (n = 3) fold

## CC/C=C\C=C/C(=O)N/C=C/C[C@H]1C[C@@H](O)[C@@H](C)C/C=C/Cc2cccc(O)c2C(=O)O1 [Salicylihalamide A]
[2]; 25 nM salicylihalamide A, 3 Gy
  decrease of survival of irradiated cells: 30%
[2]; Salicylihalamide A 12.5 nM
  Surviving Fraction 0 Gy: 1.14 ± 0.07
[2]; Salicylihalamide A 12.5 nM, 3 Gy
  Surviving Fraction 3 Gy: 0.38 ± 0.03
[2]; Salicylihalamide A 25 nM
  Surviving Fraction 0 Gy: 0.92 ± 0.08
[2]; Salicylihalamide A 25 nM, listed as salicylihalamide A
  Surviving Fraction 0 Gy: did not significantly affect
[2]; Salicylihalamide A 25 nM, 3 Gy
  Surviving Fraction 3 Gy: 0.32 ± 0.03
[2]; Salicylihalamide A 50 nM
  Surviving Fraction 0 Gy: 0.72 ± 0.09
[2]; Salicylihalamide A 50 nM, 3 Gy
  Surviving Fraction 3 Gy: 0.22 ± 0.04
[2]; Salicylihalamide A 100 nM
  Surviving Fraction 0 Gy: 0.53 ± 0.03
[2]; Salicylihalamide A 100 nM, 3 Gy
  Surviving Fraction 3 Gy: 0.11 ± 0.02
[2]; MCF-7, Salicilyhalamide 25 nM + 100 nM Adriamycin
  Surviving Fraction 100 nM Adriamycin: 0.79 ± 0.05
[2]; MCF-7, Salicilyhalamide 25 nM alone
  Surviving Fraction: 1.03 ± 0.03
[2]; MCF-7, Salicilyhalamide 50 nM + 100 nM Adriamycin
  Surviving Fraction 100 nM Adriamycin: 0.66 ± 0.04
[2]; MCF-7, Salicilyhalamide 50 nM alone, listed as Salicilyhalamide
  Surviving Fraction: 0.95 ± 0.01
[2]; MCF-7, Salicilyhalamide 50 nM alone, listed as salicylihalamide A
  Surviving Fraction: minimal effect
[2]; MCF-7, Salicilyhalamide 100 nM + 100 nM Adriamycin
  Surviving Fraction 100 nM Adriamycin: 0.57 ± 0.01
[2]; MCF-7, Salicilyhalamide 100 nM alone
  Surviving Fraction: 0.78 ± 0.04
[4]; 50 nM salicylihalamide A in combination with 100 nM Adriamycin
  decrease of survival: 25%

## Cn1cnc(N)c2ncnc1-2 [3-methyladenine]
[1]; 3-methyladenine 5 mM, 48 hours following radiation with 10 Gy, without it 1.77±0.01, n=3
  red to green ratio: 1.15±0.01
[6]
  fraction of cells containing AVO-EM: 22%

## COc1cc([C@@H]2c3cc4c(cc3[C@@H](O[C@@H]3O[C@@H]5CO[C@@H](C)O[C@H]5[C@H](O)[C@H]3O)[C@H]3COC(=O)[C@H]23)OCO4)cc(OC)c1O [Etoposide]
[2]; Table 18, MCF-7, Etoposide 0.05 μg/ml alone
  cell survival (head of column empty): (0.79; 0.77) 0.78*
[3]; Table 19, Etoposide 0.05 μg/ml alone
  cell survival (head of column empty): 0.78 ± 0.05
